Measurements taken from ChEMBL document CHEMBL5653631, “A Potent and Selective ULK1 Inhibitor Suppresses Autophagy and Sensitizes Cancer Cells to Nutrient Stress” (iScience, 2018).

Tests used:
[1] = target: T1, Serine/threonine-protein kinase Nek1 (Homo sapiens) (UniProt Q96PY6); experiment: Inhibition of human recombinant NEK1 at 500 nM related to control ULK1
T1 sequence (whole entry): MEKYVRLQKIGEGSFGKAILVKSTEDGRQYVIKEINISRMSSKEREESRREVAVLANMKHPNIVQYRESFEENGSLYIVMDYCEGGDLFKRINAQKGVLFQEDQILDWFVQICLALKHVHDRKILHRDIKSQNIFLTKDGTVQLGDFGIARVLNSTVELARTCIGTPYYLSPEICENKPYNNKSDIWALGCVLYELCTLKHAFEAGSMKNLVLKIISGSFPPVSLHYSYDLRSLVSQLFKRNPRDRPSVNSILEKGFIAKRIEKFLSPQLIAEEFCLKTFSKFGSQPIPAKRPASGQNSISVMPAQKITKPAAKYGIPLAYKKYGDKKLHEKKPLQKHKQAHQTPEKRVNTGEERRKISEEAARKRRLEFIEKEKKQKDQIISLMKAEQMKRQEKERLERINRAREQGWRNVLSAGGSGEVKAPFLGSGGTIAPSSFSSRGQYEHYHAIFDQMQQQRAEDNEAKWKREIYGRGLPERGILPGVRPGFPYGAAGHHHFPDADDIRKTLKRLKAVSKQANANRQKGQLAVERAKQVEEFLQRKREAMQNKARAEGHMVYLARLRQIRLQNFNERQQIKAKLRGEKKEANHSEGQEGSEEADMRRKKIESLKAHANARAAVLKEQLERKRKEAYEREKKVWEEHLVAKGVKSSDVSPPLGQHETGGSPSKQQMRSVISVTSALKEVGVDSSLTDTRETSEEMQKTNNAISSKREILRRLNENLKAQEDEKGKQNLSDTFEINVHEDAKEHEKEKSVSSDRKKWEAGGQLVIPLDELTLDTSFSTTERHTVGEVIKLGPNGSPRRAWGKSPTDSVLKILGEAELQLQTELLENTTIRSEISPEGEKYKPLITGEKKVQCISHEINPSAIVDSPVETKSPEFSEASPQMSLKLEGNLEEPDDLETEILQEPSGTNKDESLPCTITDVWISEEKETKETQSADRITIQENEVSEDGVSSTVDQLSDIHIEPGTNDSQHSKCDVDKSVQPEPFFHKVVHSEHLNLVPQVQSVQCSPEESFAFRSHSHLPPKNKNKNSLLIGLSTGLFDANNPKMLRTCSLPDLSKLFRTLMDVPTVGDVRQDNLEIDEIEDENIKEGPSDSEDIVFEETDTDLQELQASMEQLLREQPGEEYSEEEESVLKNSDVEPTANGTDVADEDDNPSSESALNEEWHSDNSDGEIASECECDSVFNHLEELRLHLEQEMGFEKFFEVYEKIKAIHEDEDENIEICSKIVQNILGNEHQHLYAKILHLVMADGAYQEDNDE

[2] = target: T2, Serine/threonine-protein kinase DCLK3 (Homo sapiens) (UniProt Q9C098); experiment: Inhibition of human recombinant DCAMKL3 at 500 nM in presence of ATP by radiometric assay relative to control
T2 sequence (whole entry): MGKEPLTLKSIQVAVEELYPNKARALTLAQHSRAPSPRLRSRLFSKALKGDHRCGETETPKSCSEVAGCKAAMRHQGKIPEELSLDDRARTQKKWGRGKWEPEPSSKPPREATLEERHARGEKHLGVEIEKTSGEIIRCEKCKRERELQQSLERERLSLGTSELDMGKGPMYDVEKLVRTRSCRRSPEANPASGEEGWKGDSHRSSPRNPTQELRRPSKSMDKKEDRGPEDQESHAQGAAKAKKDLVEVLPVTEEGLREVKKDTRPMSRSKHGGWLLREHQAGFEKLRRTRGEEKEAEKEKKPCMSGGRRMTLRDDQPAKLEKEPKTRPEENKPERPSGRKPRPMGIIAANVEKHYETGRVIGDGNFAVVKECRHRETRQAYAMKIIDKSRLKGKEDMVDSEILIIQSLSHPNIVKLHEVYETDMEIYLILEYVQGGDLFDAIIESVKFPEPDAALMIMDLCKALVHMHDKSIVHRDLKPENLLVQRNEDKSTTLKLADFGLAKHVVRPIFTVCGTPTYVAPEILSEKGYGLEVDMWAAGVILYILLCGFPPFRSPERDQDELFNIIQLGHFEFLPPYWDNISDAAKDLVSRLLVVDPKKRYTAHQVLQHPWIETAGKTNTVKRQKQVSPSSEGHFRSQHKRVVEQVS

[3] = target: Transcription initiation factor TFIID subunit 1-like (Homo sapiens) (UniProt Q8IZX4); experiment: Inhibition of human recombinant TAF1L at 15 nM related to control ULK1
Chain of Transcription initiation factor TFIID subunit 1-like (Homo sapiens) (Q8IZX4 whole entry): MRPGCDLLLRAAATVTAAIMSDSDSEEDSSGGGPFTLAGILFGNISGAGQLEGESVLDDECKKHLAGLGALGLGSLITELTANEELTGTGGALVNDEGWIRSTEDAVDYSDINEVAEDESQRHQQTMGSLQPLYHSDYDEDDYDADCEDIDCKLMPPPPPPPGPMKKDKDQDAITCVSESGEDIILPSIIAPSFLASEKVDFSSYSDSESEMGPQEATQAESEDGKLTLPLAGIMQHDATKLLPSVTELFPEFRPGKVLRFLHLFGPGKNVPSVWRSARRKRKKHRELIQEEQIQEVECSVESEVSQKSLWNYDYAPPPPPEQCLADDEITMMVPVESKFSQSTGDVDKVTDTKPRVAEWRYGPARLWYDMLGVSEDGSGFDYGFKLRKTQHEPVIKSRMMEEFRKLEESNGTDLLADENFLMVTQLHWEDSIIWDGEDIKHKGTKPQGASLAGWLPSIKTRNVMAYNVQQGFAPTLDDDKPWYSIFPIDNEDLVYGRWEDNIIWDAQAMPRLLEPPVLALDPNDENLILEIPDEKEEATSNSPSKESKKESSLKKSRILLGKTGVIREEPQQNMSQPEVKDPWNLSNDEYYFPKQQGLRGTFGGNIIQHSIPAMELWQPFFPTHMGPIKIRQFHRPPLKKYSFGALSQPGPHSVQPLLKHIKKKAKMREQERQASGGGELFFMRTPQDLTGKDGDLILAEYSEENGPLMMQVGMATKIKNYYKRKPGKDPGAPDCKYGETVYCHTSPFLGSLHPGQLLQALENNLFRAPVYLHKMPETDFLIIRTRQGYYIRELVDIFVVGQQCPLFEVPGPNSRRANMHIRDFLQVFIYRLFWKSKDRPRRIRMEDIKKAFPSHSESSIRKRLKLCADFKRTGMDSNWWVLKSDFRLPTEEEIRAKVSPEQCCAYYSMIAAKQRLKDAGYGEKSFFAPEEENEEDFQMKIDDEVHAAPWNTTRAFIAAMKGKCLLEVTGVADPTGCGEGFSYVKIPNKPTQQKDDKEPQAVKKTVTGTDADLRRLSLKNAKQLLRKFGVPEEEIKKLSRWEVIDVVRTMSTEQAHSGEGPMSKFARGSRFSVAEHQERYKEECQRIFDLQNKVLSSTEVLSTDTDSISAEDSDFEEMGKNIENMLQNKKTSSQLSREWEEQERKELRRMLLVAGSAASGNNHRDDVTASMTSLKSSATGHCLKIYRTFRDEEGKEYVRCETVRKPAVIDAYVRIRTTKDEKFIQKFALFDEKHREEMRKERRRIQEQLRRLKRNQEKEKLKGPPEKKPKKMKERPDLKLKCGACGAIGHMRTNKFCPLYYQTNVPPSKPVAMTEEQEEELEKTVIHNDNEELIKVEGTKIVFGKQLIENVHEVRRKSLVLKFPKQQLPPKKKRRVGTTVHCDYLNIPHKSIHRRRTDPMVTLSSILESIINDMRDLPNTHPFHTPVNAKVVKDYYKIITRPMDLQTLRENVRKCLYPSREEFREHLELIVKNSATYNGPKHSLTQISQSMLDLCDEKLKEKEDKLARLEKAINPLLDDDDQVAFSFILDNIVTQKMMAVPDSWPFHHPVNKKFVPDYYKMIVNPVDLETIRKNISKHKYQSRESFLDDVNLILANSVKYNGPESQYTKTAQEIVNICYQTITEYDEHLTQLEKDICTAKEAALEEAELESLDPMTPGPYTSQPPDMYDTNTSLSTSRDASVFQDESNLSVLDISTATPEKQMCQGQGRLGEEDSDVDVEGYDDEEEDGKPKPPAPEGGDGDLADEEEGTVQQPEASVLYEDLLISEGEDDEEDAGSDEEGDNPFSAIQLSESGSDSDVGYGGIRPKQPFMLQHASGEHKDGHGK

[4] = target: Serine/threonine-protein kinase SIK2 (Homo sapiens) (UniProt Q9H0K1); experiment: Inhibition of human recombinant QIK at 15 nM related to control ULK1
Chain of Serine/threonine-protein kinase SIK2 (Homo sapiens) (Q9H0K1 whole entry, looked up): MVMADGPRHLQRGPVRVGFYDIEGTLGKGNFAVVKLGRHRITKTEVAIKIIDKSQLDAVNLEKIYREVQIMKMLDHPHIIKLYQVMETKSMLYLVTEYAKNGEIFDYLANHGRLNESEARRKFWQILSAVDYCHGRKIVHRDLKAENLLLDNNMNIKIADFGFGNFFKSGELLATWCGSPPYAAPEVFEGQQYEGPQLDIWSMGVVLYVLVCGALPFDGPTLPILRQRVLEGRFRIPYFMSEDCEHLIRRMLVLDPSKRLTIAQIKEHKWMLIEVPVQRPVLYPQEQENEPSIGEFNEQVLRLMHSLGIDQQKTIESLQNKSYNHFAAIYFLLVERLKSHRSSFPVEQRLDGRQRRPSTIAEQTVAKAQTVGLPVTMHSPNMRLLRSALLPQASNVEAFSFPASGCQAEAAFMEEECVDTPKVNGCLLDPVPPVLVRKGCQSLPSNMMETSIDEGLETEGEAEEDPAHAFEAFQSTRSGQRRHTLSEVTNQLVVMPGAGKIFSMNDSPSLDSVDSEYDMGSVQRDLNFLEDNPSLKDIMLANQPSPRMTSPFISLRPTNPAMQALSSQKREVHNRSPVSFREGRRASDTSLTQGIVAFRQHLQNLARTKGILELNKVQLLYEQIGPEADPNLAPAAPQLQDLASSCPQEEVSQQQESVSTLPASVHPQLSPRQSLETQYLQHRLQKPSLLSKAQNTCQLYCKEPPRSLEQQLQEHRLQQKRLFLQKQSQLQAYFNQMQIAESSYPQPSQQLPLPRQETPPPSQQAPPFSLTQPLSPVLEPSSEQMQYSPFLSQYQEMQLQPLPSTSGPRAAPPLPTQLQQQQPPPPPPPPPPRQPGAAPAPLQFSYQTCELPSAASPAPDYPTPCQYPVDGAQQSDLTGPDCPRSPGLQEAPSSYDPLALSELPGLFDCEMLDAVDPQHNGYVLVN

[5] = target: T3, Dual specificity protein kinase TTK (Homo sapiens) (UniProt P33981); experiment: Inhibition of human recombinant TTK at 15 nM related to control ULK1
T3 sequence (whole entry): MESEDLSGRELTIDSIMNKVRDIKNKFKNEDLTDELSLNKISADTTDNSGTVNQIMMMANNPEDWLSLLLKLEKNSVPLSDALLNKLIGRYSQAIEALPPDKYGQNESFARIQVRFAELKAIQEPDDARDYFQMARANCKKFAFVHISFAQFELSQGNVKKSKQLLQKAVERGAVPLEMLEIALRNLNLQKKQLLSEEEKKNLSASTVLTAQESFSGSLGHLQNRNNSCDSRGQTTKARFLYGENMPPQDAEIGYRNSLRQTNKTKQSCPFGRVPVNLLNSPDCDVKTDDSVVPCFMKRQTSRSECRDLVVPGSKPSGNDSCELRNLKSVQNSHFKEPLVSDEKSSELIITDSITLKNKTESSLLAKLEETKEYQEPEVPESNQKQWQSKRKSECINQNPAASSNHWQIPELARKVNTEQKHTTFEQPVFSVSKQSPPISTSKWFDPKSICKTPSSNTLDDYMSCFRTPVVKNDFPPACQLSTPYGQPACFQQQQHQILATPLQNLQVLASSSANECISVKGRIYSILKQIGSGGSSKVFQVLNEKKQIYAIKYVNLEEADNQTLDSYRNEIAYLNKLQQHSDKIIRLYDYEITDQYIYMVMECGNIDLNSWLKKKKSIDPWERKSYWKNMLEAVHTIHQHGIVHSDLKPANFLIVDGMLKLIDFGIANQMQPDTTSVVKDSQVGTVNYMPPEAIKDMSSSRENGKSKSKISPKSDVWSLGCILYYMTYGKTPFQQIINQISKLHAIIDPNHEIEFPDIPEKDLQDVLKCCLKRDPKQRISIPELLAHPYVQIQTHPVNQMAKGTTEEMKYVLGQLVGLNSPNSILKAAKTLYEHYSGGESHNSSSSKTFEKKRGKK

[6] = target: Protein kinase C alpha type (Homo sapiens) (UniProt P17252); experiment: Inhibition of human recombinant PKCa at 40 nM related to control ULK1

Structure (SMILES): CNC(=O)c1ccccc1Oc1nc(Nc2cc(OC)c(OC)c(OC)c2)ncc1Br
- fold change (FC) [1]: 0.11
- inhibition [2]: 0%

Structure (SMILES): CC(C)[C@H](NC(=O)c1cc(-c2cnn3cc(-c4ccc(OCCN5CCCCC5)cc4)cnc23)cs1)C(F)(F)F
- fold change (FC) [3]: 0.49
- fold change (FC) [4]: 1.02
- fold change (FC) [5]: 0.25

Structure (SMILES): O=C(N[C@@H](C1CC1)C(F)(F)F)c1cc(-c2cnn3cc(-c4ccc(F)cc4)cnc23)cs1
- fold change (FC) [6]: 0
